2 compounds from patent US20080146570A1, “Chemical Compounds” (ASTRAZENECA AB, priority 2005, published 2008) can be followed below.

The target in this assay is T1, human recombinant, purified wild type His-B-Raf protein kinase (Homo sapiens, UniProt P15056).
T1 construct: His
Nature of the assay: B-Raf In Vitro ELISA Assay. Format: biochemical. Conditions: ELISA of MEK1 phosphorylation; 2.5 nM B-Raf, 10 μM ATP; 1 hour preincubation at 25° C. The procedure: B-Raf In Vitro ELISA Assay
Activity of human recombinant, purified wild type His-B-Raf protein kinase was determined in vitro using an enzyme-linked immunosorbent assay (ELISA) assay format, which measures phosphorylation of the B-Raf substrate, human recombinant, purified His-derived (detagged) MEK1. The reaction utilized 2.5 nM B-Raf, 0.15 μM […] and 10 μM adenosine triphosphate (ATP) in 40 mM N-(2-hydroxyethyl)piperazine-N′-(2-ethanesulfonic acid hemisodium salt (HEPES), 5 mM 1,4-dithio-DL-threitol (DTT), 10 mM MgCl2, 1 mM ethylenediaminetetraacetic acid (EDTA) and 0.2 M NaCl (1×HEPES buffer), with or without compound at various concentrations, in a total reaction volume of 25 μl in 384 well plates. B-Raf and compound were preincubated in 1×HEPES buffer for 1 hour at 25° C. Reactions were initiated with addition of MEK1 and ATP in 1×HEPES buffer and incubated at 25° C. for 50 minutes and reactions stopped by addition of 10 μl 175 mM EDTA (final concentration 50 mM) in 1×HEPES buffer. 5 μl of the assay mix was then diluted 1:20 into 50 mM EDTA in 1×HEPES buffer, transferred to 384 well black high protein binding plates and incubated overnight at 4° C. […] Blue fluorescent product was detected at excitation 325 and emission 420 using a TECAN Ultra plate reader. Data was graphed and IC50s calculated using Excel Fit (Microsoft).

T1 sequence (P15056 whole entry): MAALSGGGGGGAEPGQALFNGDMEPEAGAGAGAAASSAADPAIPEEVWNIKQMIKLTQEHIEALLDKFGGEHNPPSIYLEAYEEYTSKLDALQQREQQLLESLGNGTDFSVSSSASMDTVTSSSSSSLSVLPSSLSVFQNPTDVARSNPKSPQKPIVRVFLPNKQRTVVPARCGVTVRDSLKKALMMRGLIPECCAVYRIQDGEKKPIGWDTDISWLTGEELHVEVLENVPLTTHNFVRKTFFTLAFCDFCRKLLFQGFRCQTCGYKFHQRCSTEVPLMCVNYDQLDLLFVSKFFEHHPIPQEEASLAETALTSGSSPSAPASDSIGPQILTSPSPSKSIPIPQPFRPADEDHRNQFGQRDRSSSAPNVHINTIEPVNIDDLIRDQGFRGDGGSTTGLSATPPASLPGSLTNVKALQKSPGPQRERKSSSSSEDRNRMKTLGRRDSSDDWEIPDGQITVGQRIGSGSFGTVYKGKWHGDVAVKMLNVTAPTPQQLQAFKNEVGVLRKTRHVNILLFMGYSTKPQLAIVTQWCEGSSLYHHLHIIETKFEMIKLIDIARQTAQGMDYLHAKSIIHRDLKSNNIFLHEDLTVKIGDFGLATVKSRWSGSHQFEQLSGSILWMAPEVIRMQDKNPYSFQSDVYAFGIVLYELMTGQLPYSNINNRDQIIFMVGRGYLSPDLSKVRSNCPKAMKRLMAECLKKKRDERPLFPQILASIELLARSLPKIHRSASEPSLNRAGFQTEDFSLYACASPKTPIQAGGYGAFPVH

Consider `Cc1ccc(NC(=O)c2cccc(C(C)(C)C#N)c2)cc1Nc1ccnc(-c2cccnc2)n1` [Example 2, 3-(1-Cyano-1-methylethyl)-N-{4-methyl-3-[(2-pyridin-3-ylpyrimidin-4-yl)amino]phenyl}benzamide], for which the IC50 amounted to 153 nM. The value for `Cc1ccc(NC(=O)c2cccc(C(C)(C)C#N)c2)cc1Nc1cc(NC2CC2)nc(-c2cccnc2)n1` [Example 4, 3-(Cyano-dimethyl-methyl)-N-[3-(6-cyclopropylamino-2-pyridin-3-yl-pyrimidin-4-ylamino)-4-methyl-phenyl]benzamide] was 1350 nM.
